Test results: ChEMBL document CHEMBL1152811, “Docking model of drug binding to the human ether-à-go-go potassium channel guided by tandem dimer mutant patch-clamp data: a synergic approach” (J Med Chem, 2009)
Activity calls are given as the source filed them. The calls are words filed in the database; no cut-off is given here.

Columns and labels:
Format in all cases: cell-based
[1] = Inhibition of human ERG td[wt:F656A] mutant expressed in HEK293 cells by whole cell patch clamp method
[2] = Inhibition of human ERG td[wt:Y652A] mutant expressed in HEK293 cells by whole cell patch clamp method
HEK293 [3] = assay: Binding affinity to human ERG td[wt:Y652A] mutant expressed in HEK293 cells assessed as blockade of membrane current at 0.2 uM by whole cell patch clamp method
HEK293 [4] = assay: Binding affinity to human ERG td[wt:F656A] mutant expressed in HEK293 cells assessed as blockade of membrane current at 0.05 uM by whole cell patch clamp method
[5] = target: Voltage-gated inwardly rectifying potassium channel KCNH2 (Homo sapiens, UniProt Q12809); assay: Inhibition of human ERG expressed in HEK293 cells by whole cell patch clamp method
Sequence of Voltage-gated inwardly rectifying potassium channel KCNH2 (Q12809 whole entry): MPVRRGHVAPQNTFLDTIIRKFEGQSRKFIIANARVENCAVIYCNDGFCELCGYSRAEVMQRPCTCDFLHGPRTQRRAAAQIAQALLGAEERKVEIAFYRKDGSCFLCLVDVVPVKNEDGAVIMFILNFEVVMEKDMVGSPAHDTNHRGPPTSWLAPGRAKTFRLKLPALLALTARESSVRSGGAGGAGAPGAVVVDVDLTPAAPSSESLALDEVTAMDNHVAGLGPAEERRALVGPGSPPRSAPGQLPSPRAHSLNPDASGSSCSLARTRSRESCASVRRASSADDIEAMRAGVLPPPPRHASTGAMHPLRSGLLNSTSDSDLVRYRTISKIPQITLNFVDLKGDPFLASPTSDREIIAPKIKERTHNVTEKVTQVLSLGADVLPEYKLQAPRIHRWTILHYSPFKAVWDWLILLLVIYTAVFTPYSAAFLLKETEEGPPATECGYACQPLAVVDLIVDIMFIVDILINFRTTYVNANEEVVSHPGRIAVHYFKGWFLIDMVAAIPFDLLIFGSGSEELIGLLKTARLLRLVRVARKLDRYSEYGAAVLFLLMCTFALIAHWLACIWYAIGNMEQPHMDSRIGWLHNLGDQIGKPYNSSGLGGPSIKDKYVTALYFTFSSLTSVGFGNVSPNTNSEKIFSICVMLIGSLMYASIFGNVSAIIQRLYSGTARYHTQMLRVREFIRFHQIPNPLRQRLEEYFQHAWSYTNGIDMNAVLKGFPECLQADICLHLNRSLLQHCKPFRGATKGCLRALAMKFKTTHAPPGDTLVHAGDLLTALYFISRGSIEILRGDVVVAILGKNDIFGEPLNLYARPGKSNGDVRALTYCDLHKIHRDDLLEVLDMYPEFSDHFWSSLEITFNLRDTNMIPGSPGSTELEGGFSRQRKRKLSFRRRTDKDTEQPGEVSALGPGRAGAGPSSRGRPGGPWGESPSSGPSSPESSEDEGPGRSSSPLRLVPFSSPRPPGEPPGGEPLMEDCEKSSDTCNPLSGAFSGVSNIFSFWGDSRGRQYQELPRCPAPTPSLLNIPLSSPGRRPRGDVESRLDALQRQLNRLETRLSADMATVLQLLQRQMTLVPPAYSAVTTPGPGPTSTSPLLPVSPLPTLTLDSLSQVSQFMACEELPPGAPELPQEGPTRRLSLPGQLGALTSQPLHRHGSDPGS

IC50 [1] [µM] | IC50 [2] [µM] | SMILES | Activity (HEK293 [3]) | Activity (HEK293 [4]) | IC50 [5] [µM]
0.02 | 0.25 | Cc1cccc(CCN2CCC(C(=O)c3ccc(NS(C)(=O)=O)cc3)CC2)n1 |  |  | 
0.01 | 0.18 | COc1cc(N)c(Cl)cc1C(=O)NC1CCN(CCCOc2ccc(F)cc2)CC1OC (centres undefined) [CISAPRIDE] | Active | Active | 
 |  | CCOc1cc(N)c(Cl)cc1C(=O)NCC1CN(Cc2ccc(F)cc2)CCO1 (centres undefined) [MOSAPRIDE] |  |  | 4.8
0.03 | 0.03 | CC(C)(C)c1ccc(C(O)CCCN2CCC(C(O)(c3ccccc3)c3ccccc3)CC2)cc1 (centres undefined) [TERFENADINE] |  |  | 
